Results: patent US20080108665A1, “Use of N-substituted sulfoximines for control of invertebrate pests” (priority 2006, published 2008)

Columns and labels:
[1] = tested on: Green Peach Aphid (Myzus persicae); assay: Green peach aphid root uptake assay on pepper; format: in vivo; conditions: 3 days after infestation
Procedure: These assays were designed to evaluate the possibility of using the compounds identified in the foregoing examples for applications such as nursing trays, transplanting water and/or irrigation. Systemic activity against green peach aphid was evaluated in a root uptake assay. Bell peppers (Capsicum annum var. California Wonder) were used as test plants seeded and grown in rock wool plugs. Plants were grown to expanding 1st true leaf stage. The rock wool plugs containing individual plants were placed in 1-ounce cups and surrounded with white clean sand. Five plants were used for each treatment. A volume of 5 mL of the test solutions was applied to each cup (each plant). After insecticide application, the seedlings were infested with green peach aphids and held in a growth chamber (25° C., 50% RH, 16 hr light: 8 hr dark). Number of live aphids on each plant was counted at 3 days after infestation. Calculations for % Control were based on a corrected basis compared to the populations on the reference plants.
Corrected % Control=100*(X−Y)/X • where X=No. of live aphids on reference plants • Y=No. of live aphids on treated plants Assay 1: Compound (3) was tested at a dose range of 5-500 μg/plant. A stock solution of 1000 ppm (1 mg/mL) was made by dissolving technical test compound in acetone:ethanol (90:10). The highest test concentration (100 ppm, 500 μg/5 ml) was prepared by diluting 2.5 mL stock solution with 22.5 mL DI water. The lower test concentrations (25 mL) were similarly prepared by diluting aliquots of the stock solution with DI water. Reference plants received DI water only.
Assay 2: Compound (2) was tested at a dose range of 0.08-50 μg/plant. A stock solution of 1000 ppm was made by dissolving 2 mg of technical test compound in 2 mL acetone. The highest test concentration (10 ppm, 50 μg/5 ml) was prepared by diluting 0.32 mL stock solution with 1.6 mL acetone and 30.08 mL DI water, containing 6% acetone. Lower test concentrations were prepared by sequentially diluting 6.5 mL higher concentration (start from the 10 ppm test solution) with 26.0 ml acetone: DI water (6:94). The solvent/diluent system (6% acetone) was used as reference.

[2] = tested on: Eastern Subterranean Termite (Reticulitermes flavipes); assay: Eastern subterranean termite filter paper assay; format: in vivo
Procedure: Activity of Compound (2) was evaluated for its activity on Eastern subterranean termite. Technical material of the test compound was formulated in acetone on a wt/wt basis to deliver 1000, 500, 200, 50, 12.5, 3.12 and 0.78 ppm to 42.5 mm Whatman No. 1 filter papers per 200 ul of pipetted solution. Each test concentration was applied to six filter papers (6 reps). Six acetone-only control units and six DI water-only control units were also prepared. The filter papers were dried overnight in the fume hood before they were placed into 60×15 mm Fisher Brand plastic Petri dishes. A volume of 200 ul DI water was pipetted onto each Filter paper at the time of test set-up, just prior to infesting with termites. Ten worker termites were added to each Petri dish and covered. The infested Petri dishes were put in the laboratory Conviron at 28° C. and 60% RH. Termite mortality was recorded at 1, 2, 4, 7, and 10 days after infestation (DAI). Throughout the duration of the test, an average of 150 ul of DI water was added daily to the filter papers to retain moisture.

SMILES: CC(c1ccc(Cl)nc1)S(C)(=O)=NC#N (stereo not drawn) [Compound 2, [1-(6-chloropyridin-3-yl)ethyl](methyl)oxido-λ^4-sulfanylidenecyanamide]
- % Control, root uptake systemic ([1]; 0.08 μg/plant): 41%
- % Control, root uptake systemic ([1]; 0.4 μg/plant): 48%
- % Control, root uptake systemic ([1]; 2 μg/plant): 95%
- % Control, root uptake systemic ([1]; 10 μg/plant): 99%
- mortality at 0.78 ppm ([2]; 1 DAI): 0%
- mortality at 0.78 ppm ([2]; 2 DAI): 2%
- mortality at 0.78 ppm ([2]; 4 DAI): 2%
- mortality at 0.78 ppm ([2]; 7 DAI): 7%
- mortality at 0.78 ppm ([2]; 10 DAI): 10%
- mortality at 3.13 ppm ([2]; 1 DAI): 0%
- mortality at 3.13 ppm ([2]; 2 DAI): 3%
- mortality at 3.13 ppm ([2]; 4 DAI): 43%
- mortality at 3.13 ppm ([2]; 7 DAI): 60%
- mortality at 3.13 ppm ([2]; 10 DAI): 60%
- mortality at 12.5 ppm ([2]; 1 DAI): 15%
- mortality at 12.5 ppm ([2]; 2 DAI): 32%
- mortality at 12.5 ppm ([2]; 4 DAI): 60%
- mortality at 12.5 ppm ([2]; 7 DAI): 63%
- mortality at 12.5 ppm ([2]; 10 DAI): 63%
- mortality at 50 ppm ([2]; 1 DAI): 15%
- mortality at 50 ppm ([2]; 2 DAI): 27%
- mortality at 50 ppm ([2]; 4 DAI): 67%
- mortality at 50 ppm ([2]; 7 DAI): 92%
- mortality at 50 ppm ([2]; 10 DAI): 93%
- mortality at 200 ppm ([2]; 1 DAI): 37%
- mortality at 200 ppm ([2]; 2 DAI): 58%
- mortality at 200 ppm ([2]; 4 DAI): 87%
- mortality at 200 ppm ([2]; 7 DAI): 97%
- mortality at 200 ppm ([2]; 10 DAI): 100%
- mortality at 500 ppm ([2]; 1 DAI): 38%
- mortality at 500 ppm ([2]; 2 DAI): 60%
- mortality at 500 ppm ([2]; 4 DAI): 93%
- mortality at 500 ppm ([2]; 7 DAI): 100%
- mortality at 500 ppm ([2]; 10 DAI): 100%
- mortality at 1000 ppm ([2]; 1 DAI): 47%
- mortality at 1000 ppm ([2]; 2 DAI): 68%
- mortality at 1000 ppm ([2]; 4 DAI): 92%
- mortality at 1000 ppm ([2]; 7 DAI): 100%
- mortality at 1000 ppm ([2]; 10 DAI): 100%
